Data taken from patent US10729671B2, “Zinc complexes of hydrazones and (thio)semicarbazones and their use for the treatment of cancer” (RUTGERS, THE STATE UNIVERSITY OF NEW JERSEY, priority 2015, dated 2020).

Columns and labels:
TOV112D = experiment: Cell-based TOV112D activity (cell growth inhibition assay); set-up: species or system human
Zn2+ binding affinity = experiment: Zn2+ binding affinity
Method: It can function as an ionophore in conditions of the liposome experiments where external [Zn^2+]free was 10 μM. However, in complete media containing 10% fetal bovine serum (FBS), Zn^2+-binding proteins from the serum (e.g. albumin) necessarily compete for Zn^2+ with any putative MC, making the effective [Zn^2+]free much lower than [Zn^2+]total.
FZ3-AM, RZ-3 (K^+ salt), and cell culture media were purchased from Life Technologies. DOPC was purchased from Avanti Polar Lipids. ZMC1 and A6 were similarly obtained. […] HEK293 and TOV112D cells were purchased from ATCC and maintained in DMEM+GlutaMAX with 10% FBS and 1 mg/mL penicillin-streptomycin under a 5% CO2 atmosphere at 37° C. All non-cell based experiments were conducted in 50 mM Tris pH 7.2, 0.1 M NaCl at 25° C.

[1] = Liposome import assay (RZ-3 fluorescence); settings: for Zn2+ transport into liposomes: external [Zn2+]free 10 μM
Method: DOPC-liposomes were prepared by film rehydration and extrusion followed by gel filtration and diluted to an OD600=0.06 in buffer. The size distribution of the liposomes was determined by dynamic light scattering (DLS) using a Malvern Zetasizer Nano ZS. Fluorescence measurements were taken on a Horiba Fluoromax-4 spectrofluorimeter in a 5×5 mm quartz cuvette with λex/λem=550/572 nm for RZ-3 and 490/515 nm for calcein. Initial Zn^2+ import/export was quantified by fitting the first 10-30 s of data after each treatment to a line and converted to units of flux using the following Eqn 1:
[formula] where Ji is the initial flux, ΔF/Δt is the slope of the fit line, Fmax is RZ-3 fluorescence in the presence of saturating Zn^2+ and 1% TritonX-100, Fmin is RZ-3 fluorescence in the presence of excess EDTA and 1% TritonX-100, [RZ3] is the concentration of encapsulated RZ-3, and SA/Vol is the surface area to volume ratio calculated assuming hollow spheres of the mean diameter determined by DLS. Intracellular [Zn^2+]free Imaging TOV112D or HEK293 cells (40,000 cells/well) were plated on either 8-well BD Falcon chambered culture slides (Corning Life Sciences) or 8-chambered #1.5 Nunc Lab-Tek II chambered coverglasses (Thermo Scientific) treated with poly-L-lysine. After 48 h, cells were washed 2×5 m in serum-free media and incubated with 1 μM FZ3-AM for 40 m at 37° C. Cells were then washed 2×5 m in either EBSS/H (−)Ca/Mg or phenol-red free DMEM+10% FBS containing the indicated treatments for 20 m before imaging. […] To determine the kinetics of fluorescence change, each background-subtracted image in the time-lapse series was integrated in ImageJ and normalized to the integrated fluorescence of the first frame after treatment. For quantification of intracellular [Zn^2+]free, each cell was analyzed in the treated, 50 μM PYR/ZnCl2 (1:1), and 100 μM TPEN images by taking the mean fluorescence of an ROI inside the cell subtracted by an ROI immediately outside the cell measured in ImageJ. The [Zn^2+]free for each cell was then calculated by Eqn 2: […]

HEK293 cells = experiment: Intracellular [Zn2+]free imaging with FluoZin-3-AM in HEK293 cells; format: cell-based
Method: (§1) To minimize the potential for Zn^2+ contamination and contributions from poorly defined elements in complete media (e.g. FBS), cells were treated and imaged in Ca^2+ and Mg^2+-free Earle's Balanced Salt Solution supplemented with 10 mM HEPES pH 7.4 (EBSS/H (−)Ca/Mg). Excess ZnCl2 with the Zn^2+ ionophore pyrithione (PYR) was used as a positive control. Excess membrane-permeable Zn^2+ chelator N,N,N′,N′-tetrakis(2-pyridylmethyl)ethane-1,2-diamine (TPEN) was used as a negative control.
To normalize for differential dye loading, cells were then sequentially treated with excess PYR/ZnCl2, imaged, treated with TPEN, and imaged again. PYR/ZnCl2 and TPEN served to saturate and apoize the intracellular FZ3, respectively.
[formula] where Ji is the initial flux, ΔF/Δt is the slope of the fit line, Fmax is RZ-3 fluorescence in the presence of saturating Zn^2+ and 1% TritonX-100, Fmin is RZ-3 fluorescence in the presence of excess EDTA and 1% TritonX-100, [RZ3] is the concentration of encapsulated RZ-3, and SA/Vol is the surface area to volume ratio calculated assuming hollow spheres of the mean diameter determined by DLS. Intracellular [Zn^2+]free Imaging TOV112D or HEK293 cells (40,000 cells/well) were plated on either 8-well BD Falcon chambered culture slides (Corning Life Sciences) or 8-chambered #1.5 Nunc Lab-Tek II chambered coverglasses (Thermo Scientific) treated with poly-L-lysine. After 48 h, cells were washed 2×5 m in serum-free media and incubated with 1 μM FZ3-AM for 40 m at 37° C. Cells were then washed 2×5 m in either EBSS/H (−)Ca/Mg or phenol-red free DMEM+10% FBS containing the indicated treatments for 20 m before imaging. For nuclear colocalization, 1 μg/mL Hoechst 33342 was also included. Cells were imaged using a Zeiss LSM510 META NLO confocal microscope equipped with 37° C. environmental control chamber. FZ3 and Hoechst 33342 were excited at 488 nm (argon laser) and 790 nm (Chameleon Ti:sapphire laser), respectively. To determine the kinetics of fluorescence change, each background-subtracted image in the time-lapse series was integrated in ImageJ and normalized to the integrated fluorescence of the first frame after treatment. For quantification of intracellular [Zn^2+]free, each cell was analyzed in the treated, 50 μM PYR/ZnCl2 (1:1), and 100 μM TPEN images by taking the mean fluorescence of an ROI inside the cell subtracted by an ROI immediately outside the cell measured in ImageJ. The [Zn^2+]free for each cell was then calculated by Eqn 2:
[formula] […] To minimize the effects of outliers the lowest and highest 5% of cells in each series were rejected, and the remaining values averaged to give the value from that experiment. The number of cells analyzed in each trial ranged from 54-163. […]

TOV112D cells = experiment: Intracellular [Zn2+]free imaging with FluoZin-3-AM in TOV112D cells; format: cell-based; settings: ZMC1 alone (no ZnCl2), EBSS/H (−)Ca/Mg
Method: as §1
To normalize for differential dye loading, cells were then sequentially treated with excess PYR/ZnCl2, imaged, treated with TPEN, and imaged again. […]
[formula] where Ji is the initial flux, ΔF/Δt is the slope of the fit line, Fmax is RZ-3 fluorescence in the presence of saturating Zn^2+ and 1% TritonX-100, Fmin is RZ-3 fluorescence in the presence of excess EDTA and 1% TritonX-100, [RZ3] is the concentration of encapsulated RZ-3, and SA/Vol is the surface area to volume ratio calculated assuming hollow spheres of the mean diameter determined by DLS. […] To determine the kinetics of fluorescence change, each background-subtracted image in the time-lapse series was integrated in ImageJ and normalized to the integrated fluorescence of the first frame after treatment. […] The [Zn^2+]free for each cell was then calculated by Eqn 2:
[formula] […] The number of cells analyzed in each trial ranged from 54-163. […]

[2] = HEK293 (non-cancer, p53-WT), FZ3-AM, complete media, confocal microscopy

Structure (SMILES) | Activity TOV112D (TOV112D) | further results
C/C(=N\NC(=S)N1CCC1)c1cnccn1 [Compound 1, (E)-N′-(1-(Pyrazin-2-yl)ethylidene)azetidine-1-carbothiohydrazide] | ++ | 
C/C(=N\NC(=S)N1CCC1)c1cc(N(C)C)ccn1 [Compound 2, (E)-N′-(1-(4-(dimethylamino)pyridin-2-yl)ethylidene)azetidine-1-carbothiohydrazide] | +++ | 
C/C(=N\Nc1nc2ccccc2s1)c1ccccn1 [Compound 3, (E)-2-(2-(1-(pyridin-2-yl)ethylidene)hydrazinyl)benzo[d]thiazole] | +++ | 
C/C(=N\Nc1nc2ccccc2o1)c1ccccn1 [Compound 4, (E)-2-(2-(1-(pyridin-2-yl)ethylidene)hydrazinyl)benzo[d]oxazole] | +++ | 
C/C(=N\Nc1nc2ccccc2[nH]1)c1ccccn1 [Compound 9, (E)-2-(2-(1-(pyridin-2-yl)ethylidene)hydrazinyl)-1H-benzo[d]imidazole] | +++ | 
C/C(=N\Nc1nc2ccccc2n1C)c1ccccn1 [Compound 10, (E)-1-methyl-2-(2-(1-(pyridin-2-yl)ethylidene)hydrazinyl)-1H-benzo[d]imidazole] | +++ | 
CC/C(=N\Nc1nc2ccccc2s1)c1ccccn1 [Compound 11, (E)-2-(2-(1-(pyridin-2-yl)propylidene)hydrazinyl)benzo[d]thiazole] | +++ | 
CC(C)/C(=N\Nc1nc2ccccc2s1)c1ccccn1 [Compound 12, (E)-2-(2-(2-methyl-1-(pyridin-2-yl)propylidene)hydrazinyl)benzo[d]thiazole] | + | 
C/C(=N\Nc1nc2ccccc2s1)c1ncc[nH]1 [Compound 13, (E)-2-(2-(1-(1H-imidazol-2-yl)ethylidene)hydrazinyl)benzo[d]thiazole] | + | 
C/C(=N\Nc1nc2cc(F)ccc2s1)c1ccccn1 [Compound 14, (E)-5-fluoro-2-(2-(1-(pyridin-2-yl)ethylidene)hydrazinyl)benzo[d]thiazole] | +++ | 
C/C(=N\Nc1nc2ccc(F)cc2s1)c1ccccn1 [Compound 15, (E)-6-fluoro-2-(2-(1-(pyridin-2-yl)ethylidene)hydrazinyl)benzo[d]thiazole] | +++ | 
C/C(=N\NC(=O)N1CCC1)c1ccccn1 [Compound A6] |  | Kd (Zn2+ binding affinity): 1100 nM; Zn2+ transport into liposomes [1]: shuttled Zn^2+ into the liposomes; increase of intracellular [Zn2+]free (HEK293 cells; [2]): did not
O=C(O)CN(CC(=O)O)CC(=O)O [NTA] |  | Zn2+ transport into liposomes [1]: did not; increase of intracellular [Zn2+]free (HEK293 cells; [2]): did not
C/C(=N\NC(=S)N1CCC1)c1ccccn1 [ZMC1] |  | increase of intracellular [Zn2+]free (TOV112D cells): neither cell type showed an increase; RZ-3 fluorescence after reversal of the [Zn2+]free gradient (Zn2+ export) ([1]; large excess of EDTA outside of the liposomes, then ZMC1 added): time dependent decrease; increase of intracellular [Zn2+]free (HEK293 cells; [2]): increased; increase of intracellular [Zn2+]free (HEK293 cells; HEK293, ZMC1 alone (no ZnCl2), EBSS/H (−)Ca/Mg): neither cell type showed an increase
